# Where “and” joins values, the source holds several entries; their conditions need not be identical. Equal values may be shown once. Toxic doses and inconclusive results are not listed.
# Test system: L1210 leukemia ip in BDF1 mice, survival T/C
# Test: NCI In Vivo Anticancer Drug Screen. Data for tumor model L1210 Leukemia (intraperitoneal) in B6D2F1 (BDF1) mice
# Conditions: endpoint: mean survival time, higher = longer survival
# How it was run: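 Transplanted-tumor mice were given test agent; controls received vehicle only. Survival readings from the two groups were divided (treated over control).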
# [1] = dose: 12.5 mg/kg/injection, schedule: Q04DX002 (ip), vehicle: Klucel (hydroxypropylcellulose) (HPC)
# [2] = dose: 50.0 mg/kg/injection, schedule: Q04DX002 (ip), vehicle: Klucel (hydroxypropylcellulose) (HPC)
# [3] = dose: 100.0 mg/kg/injection, schedule: Q01DX001 (ip), vehicle: carboxymethylcellulose (CMC)
# [4] = dose: 100.0 mg/kg/injection, schedule: Q01DX001 (ip), vehicle: saline
# [5] = dose: 200.0 mg/kg/injection, schedule: Q01DX001 (ip), vehicle: saline
# [6] = dose: 400.0 mg/kg/injection, schedule: Q01DX001 (ip), vehicle: saline
# [7] = dose: 100.0 mg/kg/injection, schedule: Q04DX003 (ip), vehicle: Klucel (hydroxypropylcellulose) (HPC)
compound,measurement,setting,value
CC(C)(C)N(CCO)CC1C(c2ccccc2)C1c1ccccc1 (configuration not stated),T/C,[1],103 % of control
same,T/C,"dose: 25.0 mg/kg/injection, schedule: Q04DX002 (ip), vehicle: Klucel (hydroxypropylcellulose) (HPC)",103 % of control
same,T/C,[2],97 % of control
O=[N+]([O-])c1ccc2cnn(CCCl)c2c1,T/C,[3],94 % of control
same,T/C,"dose: 200.0 mg/kg/injection, schedule: Q01DX001 (ip), vehicle: carboxymethylcellulose (CMC)",100 % of control
same,T/C,"dose: 400.0 mg/kg/injection, schedule: Q01DX001 (ip), vehicle: carboxymethylcellulose (CMC)",108 % of control
COC(=O)C1=C(NC(=O)Nc2ccccc2)OC(C)(C)C1c1ccc(Cl)cc1 (configuration not stated),T/C,[4],93 % of control
same,T/C,[5],89 % of control
same,T/C,[6],89 % of control
Fc1ccc(N=C2c3ccccc3-c3ccccc32)cc1,T/C,"dose: 100.0 mg/kg/injection, schedule: Q04DX003 (ip), vehicle: saline with Tween-80",93 % of control
same,T/C,"dose: 200.0 mg/kg/injection, schedule: Q04DX003 (ip), vehicle: saline with Tween-80",93 % of control
same,T/C,"dose: 400.0 mg/kg/injection, schedule: Q04DX003 (ip), vehicle: saline with Tween-80",95 % of control
CCCCCCCCCCCCNC(=S)NCCCC,T/C,[2],91 % of control
same,T/C,"dose: 100.0 mg/kg/injection, schedule: Q04DX002 (ip), vehicle: Klucel (hydroxypropylcellulose) (HPC)",95 % of control
same,T/C,"dose: 200.0 mg/kg/injection, schedule: Q04DX002 (ip), vehicle: Klucel (hydroxypropylcellulose) (HPC)",98 % of control
N=C(CNC1CC2CCC1C2)SS(=O)(=O)O (configuration not stated),T/C,"dose: 3.13 mg/kg/injection, schedule: Q01DX009 (ip), vehicle: Klucel (hydroxypropylcellulose) (HPC)",97 % of control
same,T/C,"dose: 3.13 mg/kg/injection, schedule: Q04DX002 (ip), vehicle: Klucel (hydroxypropylcellulose) (HPC)",98 % of control
same,T/C,"dose: 6.25 mg/kg/injection, schedule: Q01DX009 (ip), vehicle: Klucel (hydroxypropylcellulose) (HPC)",94 % of control
same,T/C,"dose: 6.25 mg/kg/injection, schedule: Q04DX002 (ip), vehicle: Klucel (hydroxypropylcellulose) (HPC)",95 % of control
same,T/C,"dose: 12.5 mg/kg/injection, schedule: Q01DX009 (ip), vehicle: Klucel (hydroxypropylcellulose) (HPC)",105 % of control
same,T/C,[1],98 % of control and 103 % of control
O=C(COc1ccc(Cl)cc1)Nc1ccccc1Br,T/C,"dose: 100.0 mg/kg/injection, schedule: Q04DX002 (ip), vehicle: saline + alcohol",96 % of control
same,T/C,"dose: 200.0 mg/kg/injection, schedule: Q04DX002 (ip), vehicle: saline + alcohol",107 % of control
same,T/C,"dose: 400.0 mg/kg/injection, schedule: Q04DX002 (ip), vehicle: saline + alcohol",103 % of control
Cc1cc(N)c(C(=O)NN)cc1C,T/C,[4],96 % of control
same,T/C,[5],93 % of control
same,T/C,[6],113 % of control
NC(=O)NC(C(=O)O)(c1ccccc1)C1CCC1 (configuration not stated),T/C,"dose: 50.0 mg/kg/injection, schedule: Q01DX009 (ip), vehicle: saline with Tween-80",103 % of control
same,T/C,"dose: 100.0 mg/kg/injection, schedule: Q01DX009 (ip), vehicle: saline with Tween-80",94 % of control
same,T/C,"dose: 200.0 mg/kg/injection, schedule: Q01DX009 (ip), vehicle: saline with Tween-80",102 % of control
same,T/C,"dose: 400.0 mg/kg/injection, schedule: Q01DX009 (ip), vehicle: saline with Tween-80",107 % of control
COc1cc2c3c(c4ccc(O)cc4c2cc1OC)[C@@H](O)[C@@H]1CCCN1C3,T/C,"dose: 2.5 mg/kg/injection, schedule: Q01DX005 (ip), vehicle: water",106 % of control
same,T/C,"dose: 2.5 mg/kg/injection, schedule: Q01DX009 (ip), vehicle: water",95 % of control
same,T/C,"dose: 2.5 mg/kg/injection, schedule: Q01DX015 (ip), vehicle: water",105 % of control
same,T/C,"dose: 5.0 mg/kg/injection, schedule: Q01DX001 (ip), vehicle: water",98 % of control
same,T/C,"dose: 5.0 mg/kg/injection, schedule: Q01DX005 (ip), vehicle: water",104 % of control
same,T/C,"dose: 5.0 mg/kg/injection, schedule: Q01DX009 (ip), vehicle: water",119 % of control
same,T/C,"dose: 5.0 mg/kg/injection, schedule: Q01DX009 (sc), vehicle: water",109 % of control
same,T/C,"dose: 5.0 mg/kg/injection, schedule: Q01DX015 (ip), vehicle: water",120 % of control
same,T/C,"dose: 5.0 mg/kg/injection, schedule: Q02DX005 (ip), vehicle: water",114 % of control
same,T/C,"dose: 5.0 mg/kg/injection, schedule: Q## X003 (ip), vehicle: water",111 % of control
same,T/C,"dose: 6.0 mg/kg/injection, schedule: Q01DX Z (ip), vehicle: water",124 % of control
same,T/C,"dose: 6.7 mg/kg/injection, schedule: Q01DX015 (ip), vehicle: water",112 % of control
same,T/C,"dose: 7.1 mg/kg/injection, schedule: Q01DX015 (ip), vehicle: water",112 % of control
same,T/C,"dose: 10.0 mg/kg/injection, schedule: Q01DX001 (ip), vehicle: water",108 % of control
same,T/C,"dose: 10.0 mg/kg/injection, schedule: Q01DX005 (ip), vehicle: water",109 % of control
same,T/C,"dose: 10.0 mg/kg/injection, schedule: Q01DX009 (ip), vehicle: water",119 % of control
same,T/C,"dose: 10.0 mg/kg/injection, schedule: Q01DX009 (oral), vehicle: water",114 % of control
same,T/C,"dose: 10.0 mg/kg/injection, schedule: Q01DX009 (sc), vehicle: water",122 % of control
same,T/C,"dose: 10.0 mg/kg/injection, schedule: Q01DX015 (ip), vehicle: water",112 % of control
same,T/C,"dose: 10.0 mg/kg/injection, schedule: Q## X003 (ip), vehicle: water",101 % of control
same,T/C,"dose: 12.0 mg/kg/injection, schedule: Q01DX Z (ip), vehicle: water",151 % of control
same,T/C,"dose: 15.0 mg/kg/injection, schedule: Q01DX005 (ip), vehicle: water",117 % of control
same,T/C,"dose: 15.0 mg/kg/injection, schedule: Q01DX009 (ip), vehicle: water",120 % of control
same,T/C,"dose: 15.0 mg/kg/injection, schedule: Q01DX009 (sc), vehicle: water",119 % of control
same,T/C,"dose: 15.0 mg/kg/injection, schedule: Q01DX015 (ip), vehicle: water",109 % of control
same,T/C,"dose: 15.0 mg/kg/injection, schedule: Q02DX005 (ip), vehicle: water",124 % of control
same,T/C,"dose: 15.0 mg/kg/injection, schedule: Q## X003 (ip), vehicle: water",119 % of control
same,T/C,"dose: 20.0 mg/kg/injection, schedule: Q01DX001 (ip), vehicle: water",104 % of control
same,T/C,"dose: 20.0 mg/kg/injection, schedule: Q01DX009 (ip), vehicle: water",114 % of control
same,T/C,"dose: 20.0 mg/kg/injection, schedule: Q01DX009 (oral), vehicle: water",109 % of control
same,T/C,"dose: 20.0 mg/kg/injection, schedule: Q01DX009 (sc), vehicle: water",88 % of control
same,T/C,"dose: 20.0 mg/kg/injection, schedule: Q01DX Z (ip), vehicle: water",110 % of control
same,T/C,"dose: 20.0 mg/kg/injection, schedule: Q## X003 (ip), vehicle: water",117 % of control
same,T/C,"dose: 22.5 mg/kg/injection, schedule: Q01DX015 (ip), vehicle: water",123 % of control
same,T/C,"dose: 25.0 mg/kg/injection, schedule: Q01DX015 (ip), vehicle: water",96 % of control
same,T/C,"dose: 30.0 mg/kg/injection, schedule: Q01DX009 (oral), vehicle: water",100 % of control
same,T/C,"dose: 40.0 mg/kg/injection, schedule: Q01DX001 (ip), vehicle: water",114 % of control
CC1C(=O)CCC2(C)CCC(C(=O)/C=C/c3ccco3)CC12 (configuration not stated),T/C,"dose: 100.0 mg/kg/injection, schedule: Q01DX001 (ip), vehicle: Klucel (hydroxypropylcellulose) (HPC)",100 % of control
same,T/C,"dose: 200.0 mg/kg/injection, schedule: Q01DX001 (ip), vehicle: Klucel (hydroxypropylcellulose) (HPC)",102 % of control
same,T/C,"dose: 400.0 mg/kg/injection, schedule: Q01DX001 (ip), vehicle: Klucel (hydroxypropylcellulose) (HPC)",89 % of control
CN(CCCCN(C)P(=O)(N1CC1)N1CC1)P(=O)(N1CC1)N1CC1,T/C,[3],88 % of control
Clc1c(CBr)c(Cl)c(CBr)c(Cl)c1CBr,T/C,"dose: 25.0 mg/kg/injection, schedule: Q01DX009 (ip), vehicle: Klucel (hydroxypropylcellulose) (HPC)",90 % of control
same,T/C,"dose: 50.0 mg/kg/injection, schedule: Q01DX009 (ip), vehicle: Klucel (hydroxypropylcellulose) (HPC)",87 % of control
same,T/C,[7],88 % of control
COc1ccc(OC)c(NC(=O)N(CCO)C2CCCCC2)c1,T/C,[7],90 % of control
same,T/C,"dose: 400.0 mg/kg/injection, schedule: Q04DX003 (ip), vehicle: Klucel (hydroxypropylcellulose) (HPC)",97 % of control
CCCCOP(=O)(Nc1ccc(Cl)cc1)OCCCC,T/C,"dose: 100.0 mg/kg/injection, schedule: Q04DX002 (ip), vehicle: saline with Tween-80",101 % of control
same,T/C,"dose: 200.0 mg/kg/injection, schedule: Q04DX002 (ip), vehicle: saline with Tween-80",94 % of control
same,T/C,"dose: 400.0 mg/kg/injection, schedule: Q04DX002 (ip), vehicle: saline with Tween-80",105 % of control
CCCCNc1cc(Nc2ccc(Br)cc2)nc(N)n1,T/C,[4],102 % of control
same,T/C,[5],98 % of control

# From PubChem BioAssay AID248 (DTP/NCI, 2004)
